Experimental data: patent publication US20240150293A1, “SPIROCYCLOHEXANE DERIVATIVES, PHARMACEUTICAL COMPOSITIONS CONTAINING THEM AND THEIR USES AS ANTI-APOPTOTIC INHIBITORS” (LES LABORATOIRES SERVIER, priority 2021, published 2024)

Target: Mcl-1 protein (UniProtKB Q07820) (Homo sapiens (Human), UniProt Q07820)
Assay: Inhibition of Mcl-1 by the fluorescence polarisation assay (Example A, Method A)
Format: binding
Conditions: fluorescence polarization assay
Summary of the method: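 Protein (5 nM) and fluorescein-tagged peptide tracer (1 nM) incubated with 11-point compound series for 2 h at room temperature in HEPES/NaCl/Tween 20 buffer, pH 7.4, 5% DMSO. Displacement read as decrease in polarisation; IC50 fitted by 4-parameter logistic, converted to Ki (cKi or eKi).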

Sequence of Mcl-1 protein (Q07820 whole entry): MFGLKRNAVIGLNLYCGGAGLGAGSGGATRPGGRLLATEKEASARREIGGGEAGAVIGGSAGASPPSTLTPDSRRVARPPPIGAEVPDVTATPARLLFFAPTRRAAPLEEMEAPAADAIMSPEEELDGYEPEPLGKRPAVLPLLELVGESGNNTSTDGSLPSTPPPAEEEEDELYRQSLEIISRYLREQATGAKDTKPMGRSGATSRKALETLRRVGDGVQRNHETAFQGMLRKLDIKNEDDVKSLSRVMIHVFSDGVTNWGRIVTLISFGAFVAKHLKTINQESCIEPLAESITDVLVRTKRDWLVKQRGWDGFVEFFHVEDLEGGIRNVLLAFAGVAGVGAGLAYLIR

Row | Structure (SMILES) | Ki
1 | O=C(O)[C@]1(Nc2cccc(Cl)c2)CC[C@]2(CC1)C(c1coc3ccccc13)=Cc1ccccc12 [Example 245, (1s,4s)-2′-(1-benzofuran-3-yl)-4-(3-chloroanilino)spiro[cyclohexane-1,1′-indene]-4-carboxylic acid] | 4.3 µM
2 | CC1=Cc2cccc(C)c2C12CCC(Nc1cccc(Br)c1)(C(=O)O)CC2 (stereo not drawn) [Example 125, 4-(3-bromoanilino)-2′,7′-dimethylspiro[cyclohexane-1,1′-indene]-4-carboxylic acid] | 7.5 µM
3 | O=C(O)[C@]1(Nc2cccc(Br)c2)CC[C@@]2(CC1)C(C#CCOc1ccccc1)=Cc1ccccc12 [Example 165, (1r,4r)-4-(3-bromoanilino)-2′-(3-phenoxyprop-1-yn-1-yl)spiro[cyclohexane-1,1′-indene]-4-carboxylic acid] | 90.4 µM
4 | Cc1cc(C)cc(C2=Cc3ccccc3C23CCC(Nc2cccc(Br)c2)(C(=O)O)CC3)c1 (single isomer, unassigned) [Example 238, 4-(3-bromoanilino)-2′-(3,5-dimethylphenyl)spiro[cyclohexane-1,1′-indene]-4-carboxylic acid] | 57.8 µM
5 | CN(Cc1ccccc1)CC1=Cc2ccccc2[C@]12CC[C@@](Nc1cccc(Cl)c1)(C(=O)O)CC2 [Example 184, (1s,4s)-2′-{[benzyl(methyl)amino]methyl}-4-(3-chloroanilino)spiro[cyclohexane-1,1′-indene]-4-carboxylic acid] | 1.23 µM
6 | O=C(O)[C@]1(Nc2cccc(Cl)c2)CC[C@]2(CC1)C(c1ccc(OCc3cccnc3)cc1)=Cc1ccccc12 [Example 350, (1s,4s)-4-(3-chloroanilino)-2′-{4-[(pyridin-3-yl)methoxy]phenyl}spiro[cyclohexane-1,1′-indene]-4-carboxylic acid] | 1.75 µM
7 | CN1c2ccc(/C=C/c3ccccc3)cc2[C@]2(CC[C@](Nc3cccc(Br)c3)(C(=O)O)CC2)C1=O [Example 9, (1r,4r)-4-(3-bromoanilino)-1′-methyl-2′-oxo-5′-[(E)-2-phenylethenyl]-1′,2′-dihydrospiro[cyclohexane-1,3′-indole]-4-carboxylic acid] | 4.82 µM

Molecules with a lower Ki, results first:

Row | Ki | Structure (SMILES)
8 | 0.921 µM | O=C(O)[C@]1(Nc2cccc(Cl)c2)CC[C@]2(CC1)C(c1cccc3occc13)=Cc1ccccc12 [Example 340, (1s,4s)-2′-(1-benzofuran-4-yl)-4-(3-chloroanilino)spiro[cyclohexane-1,1′-indene]-4-carboxylic acid]
9 | 0.443 µM | O=C(O)[C@]1(Nc2cccc(Cl)c2)CC[C@@]2(CC1)c1ccccc1CC2c1ccc(Oc2cccnc2)cc1 (stereo partly drawn) [Example 367, (1r,4r)-4-(3-chloroanilino)-2′-{4-[(pyridin-3-yl)oxy]phenyl}-2′,3′-dihydrospiro[cyclohexane-1,1′-indene]-4-carboxylic acid]
10 | 0.431 µM | CN1C(=O)Cc2cc(OCCCC3Cc4ccccc4[C@]34CC[C@@](Nc3cccc(Cl)c3)(C(=O)O)CC4)ccc21 (stereo partly drawn) [Example 480, (1r,4r)-4-(3-chloroanilino)-2′-{3-[(1-methyl-2-oxo-2,3-dihydro-1H-indol-5-yl)oxy]propyl}-2′,3′-dihydrospiro[cyclohexane-1,1′-indene]-4-carboxylic acid]
11 | 0.154 µM | O=C(O)[C@]1(Nc2cccc(Cl)c2)CC[C@]2(CC1)C(CC(CO)COc1ccnc3ccsc13)=Cc1ccccc12 (stereo partly drawn) [Example 491, (1r,4r)-4-(3-chloroanilino)-2′-{2-(hydroxymethyl)-3-[(thieno[3,2-b]pyridin-7-yl)oxy]propyl}spiro[cyclohexane-1,1′-indene]-4-carboxylic acid]
12 | 0.0514 µM | O=C(O)[C@]1(Nc2cccc(Cl)c2)CC[C@]2(CC1)C(CCOc1ccccc1)=Cc1ccccc12 [Example 171, (1r,4r)-4-(3-chloroanilino)-2′-(2-phenoxyethyl)spiro[cyclohexane-1,1′-indene]-4-carboxylic acid]
